Each structure is given as a SMILES string. Entries after “also recorded” stand apart in the source; their conditions may differ.

One assay addresses DGKζ (Homo sapiens (Human), UniProt Q13574). Put plainly: In vitro DGKζ inhibition assay (ADP-Glo). The assay is classed as biochemical. As to conditions: 0.4 nM DGKζ, 30 μM ATP, 20 μM DLG. Here is the method:
(§1) The DGKα and DGKζ biochemical reactions were performed using His-tagged human recombinant enzymes (Signal Chem, DGKα, #D21-10BH; DGKζ, #D30-10H)) and DLG (Dilauroyl-sn-glycerol) lipid substrate (Signal Chem, #D430-59). ADP-Glo assay was performed using ADP-Glo™ kinase Assay kit (Promega, #V9104). The reactions were carried out in assay buffer containing 40 mM Tris, pH 7.5, 0.1% CHAPS, 0.1% Prionex, 40 mM NaCl, 5 mM MgCl2, 1 mM CaCl2, and 1 mM DTT. DGKα reactions contained 0.1 nM DGKα, 50 μM ATP, and 20 μM DLG. And DGKζ reactions contained 0.4 nM DGKζ, 30 μM ATP, and 20 μM DLG.
(§2) For compound inhibition studies, 40 nL test compound in DMSO was added to wells of white polystyrene plates in 384-well (Greiner, #784075) or 1536-well format (Greiner, #782075). Compounds were added with top concentration of 2 mM with 11 point, 3-fold dilution series. Enzyme solution (contains 2×DGK enzyme concentration in 1× assay buffer) was added to the plate in 2 μL/well volume, followed by 2 μL/well of substrate solution (contains 2× concentration of ATP and DLG substrate in 1× assay buffer). Plates were then centrifuged for 1 min at 1200 RPM and sealed or lidded. For 4 μL reaction volume, test compounds were therefore diluted 100× to final top concentration of 20 μM. After 90 minute incubation, reactions were quenched by addition of 2 μL/well Promega ADP-Glo Reagent, followed by centrifugation and lidding. After 60 min incubation, 2 μL/well Promega Kinase Detection Reagent was added, plates centrifuged, and incubated for 30 min. Plates were then read using Luminescence method on BMG PHERAstar FSX plate reader. Percent inhibition was calculated and IC50s were determined using 4-parameter fit in Genedata Screener. Labcyte Echo acoustic dispenser was used for compound addition, and Formulatrix Tempest liquid handler was used for all reagent dispenses.
In general terms: ADP-Glo turns the ADP formed in a reaction into a luminescent signal.

Assay [1] concerns MC38 syngeneic tumor model. Kind of assay: MC38 syngeneic tumor model, DGK inhibitor plus anti-PD-1 (RMP1-14). It is filed as in vivo, C57Bl/6 mice. As to conditions: FIGS. 9A-9B, listed as Compound 3. Here is the method: The in vivo effect of combining Compound 1 plus anti-PD-1 (RMP1-14, Bio X Cell) was assessed in the MC38 (CRL-1642, ATCC, Manassas, VA) syngeneic tumor model (see FIG. 3) in 6 to 8 weeks old C57Bl/6 mice (Jackson laboratories). Compound 1 was suspended in 5% N,N-dimethylacetamide (DMAC)+50 mM Citrate buffer in 0.5% methyl cellulose for oral administration and RMP1-14 was suspended in saline for intraperitoneal administration. Briefly, the left flank of the mice was shaved the day prior to subcutaneous inoculation with 2×10^6 MC38 cells suspended in PBS. On day 7, tumor dimensions were measured by Vernier calipers, and volume estimated by the formula Volume=[L (long dimension)×W^2 (short dimension)]/2. Mice were randomized into 6 groups of 10 mice of approximate mean volume (˜160 mm^3). Tumors were measured 3 times per week for the duration of the study. Starting day 7, mice were dosed with (i) vehicle; (ii) 250 μg/mouse of RMP1-14; (iii) 10 mg/kg of Compound 1; (iv) 1 mg/kg of Compound 1; (v) 10 mg/kg of Compound 1 and 250 μg/mouse of RMP1-14; or (vi) 1 mg/kg of Compound 1 and 250 μg/mouse of RMP1-14. Compound 1 was administered orally once daily (QD) for 12 days, while RMP1-14 was dosed every 5 days (for a total of 3 doses).
The in vivo effect of combining Compound 2 plus anti-PD-1 (RMP1-14, Bio X Cell) was assessed in the MC38 (CRL-1642, ATCC, Manassas, VA) syngeneic tumor model in 6 to 8 weeks old C57Bl/6 mice (Jackson laboratories). Compound 2 was suspended in 5% N,N-dimethylacetamide (DMAC)+50 mM Citrate buffer in 0.5% methyl cellulose for oral administration and RMP1-14 was suspended in saline for intraperitoneal administration. Briefly, the left flank of the mice was shaved the day prior to subcutaneous inoculation with 2×10^6 MC38 cells suspended in PBS. On day 7, tumor dimensions were measured by Vernier calipers, and volume estimated by the formula Volume=[L (long dimension)×W^2 (short dimension)]/2. Mice were randomized into 6 groups of 10 mice of approximate mean volume (˜130 mm^3). Tumors were measured 3 times per week for the duration of the study. Starting day 7, mice were dosed with (i) vehicle; (ii) 250 μg/mouse of RMP1-14 (Anti-PD-1); (iii) 0.5 mg/kg of Compound 2 QD; (iv) 0.5 mg/kg of Compound 2 […] and 250 μg/mouse of RMP1-14; (v) 0.5 mg/kg of Compound 2 Q2D; (vi) 0.5 mg/kg of Compound 2 […] and 250 μg/mouse of RMP1-14; (vii) 1.5 mg/kg of Compound 2 QD; (viii) 1.5 mg/kg of Compound 2 QD and 250 μg/mouse of RMP1-14 (ix) 1.5 mg/kg of Compound 2 Q2D; (x) 1.5 mg/kg of Compound 2 Q2D and 250 μg/mouse of RMP1-14; (xi) 1.5 mg/kg of Compound 2 Q3D; or (xii) 1.5 mg/kg of Compound 2 Q3D and 250 μg/mouse of RMP1-14.
The in vivo effect of combining 2-(4-((2S,5R)-4-(bis(4-fluorophenyl)methyl)-2,5-dimethylpiperazin-1-yl)-1H-[1,2,4]triazolo[3,4-b]purin-1-yl)-N,N-dimethylethane-1-amine (i.e., Compound 3) plus anti-PD-1 (RMP1-14, Bio X Cell) was assessed in the MC38 (CRL-1642, ATCC, Manassas, VA) syngeneic tumor model in 6 to 8 weeks old C57Bl/6 mice (Jackson laboratories). Compound 3 was suspended in 5% N,N-dimethylacetamide (DMAC)+50 mM Citrate buffer in 0.5% methyl cellulose for oral administration and RMP1-14 was suspended in saline for intraperitoneal administration. Briefly, the left flank of the mice was shaved the day prior to subcutaneous inoculation with 2×10^6 MC38 cells suspended in PBS. On day 7, tumor dimensions were measured by Vernier calipers, and volume estimated by the formula Volume=[L (long dimension)×W^2 (short dimension)]/2. Mice were randomized into 6 groups of 10 mice of approximate mean volume (˜200 mm^3). Tumors were measured 3 times per week for the duration of the study. Starting day 7, mice were dosed with (i) vehicle; (ii) 250 μg/mouse of RMP1-14 (Anti-PD-1); (iii) 10 mg/kg of Compound 3 QD; (iv) 10 mg/kg of Compound 3 QD and 250 μg/mouse of RMP1-14; (v) 30 mg/kg of Compound 3 QD; or (vi) 30 mg/kg of Compound 3 QD and 250 μg/mouse of RMP1-14.

The target in another assay is DGKα (Homo sapiens (Human), UniProt P23743). Put plainly: In vitro DGKα inhibition assay (ADP-Glo). It is filed as biochemical. Particulars: 0.1 nM DGKα, 50 μM ATP, 20 μM DLG. The method, then: as §1, §2
Sequence of DGKα (P23743 whole entry): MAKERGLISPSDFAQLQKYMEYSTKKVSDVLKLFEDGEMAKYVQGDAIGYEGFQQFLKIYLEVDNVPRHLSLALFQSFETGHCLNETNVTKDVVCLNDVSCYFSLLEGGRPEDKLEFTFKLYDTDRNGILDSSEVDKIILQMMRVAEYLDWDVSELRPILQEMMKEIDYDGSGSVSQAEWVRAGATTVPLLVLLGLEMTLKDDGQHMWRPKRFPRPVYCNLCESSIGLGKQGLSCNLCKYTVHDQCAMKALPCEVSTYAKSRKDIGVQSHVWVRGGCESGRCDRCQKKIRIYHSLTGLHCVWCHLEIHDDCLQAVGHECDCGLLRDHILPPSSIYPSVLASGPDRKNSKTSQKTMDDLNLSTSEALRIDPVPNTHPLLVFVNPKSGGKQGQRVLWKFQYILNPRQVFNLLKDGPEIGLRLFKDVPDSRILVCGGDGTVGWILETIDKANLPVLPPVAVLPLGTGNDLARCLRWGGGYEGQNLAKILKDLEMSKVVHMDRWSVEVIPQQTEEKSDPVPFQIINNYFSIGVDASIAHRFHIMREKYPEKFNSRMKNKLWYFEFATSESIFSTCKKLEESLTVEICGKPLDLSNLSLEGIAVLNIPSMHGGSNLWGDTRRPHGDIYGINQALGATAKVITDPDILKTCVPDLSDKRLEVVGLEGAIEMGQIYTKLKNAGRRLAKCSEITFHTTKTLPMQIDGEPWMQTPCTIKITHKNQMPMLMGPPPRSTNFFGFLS

Sequence of DGKζ (Q13574 whole entry): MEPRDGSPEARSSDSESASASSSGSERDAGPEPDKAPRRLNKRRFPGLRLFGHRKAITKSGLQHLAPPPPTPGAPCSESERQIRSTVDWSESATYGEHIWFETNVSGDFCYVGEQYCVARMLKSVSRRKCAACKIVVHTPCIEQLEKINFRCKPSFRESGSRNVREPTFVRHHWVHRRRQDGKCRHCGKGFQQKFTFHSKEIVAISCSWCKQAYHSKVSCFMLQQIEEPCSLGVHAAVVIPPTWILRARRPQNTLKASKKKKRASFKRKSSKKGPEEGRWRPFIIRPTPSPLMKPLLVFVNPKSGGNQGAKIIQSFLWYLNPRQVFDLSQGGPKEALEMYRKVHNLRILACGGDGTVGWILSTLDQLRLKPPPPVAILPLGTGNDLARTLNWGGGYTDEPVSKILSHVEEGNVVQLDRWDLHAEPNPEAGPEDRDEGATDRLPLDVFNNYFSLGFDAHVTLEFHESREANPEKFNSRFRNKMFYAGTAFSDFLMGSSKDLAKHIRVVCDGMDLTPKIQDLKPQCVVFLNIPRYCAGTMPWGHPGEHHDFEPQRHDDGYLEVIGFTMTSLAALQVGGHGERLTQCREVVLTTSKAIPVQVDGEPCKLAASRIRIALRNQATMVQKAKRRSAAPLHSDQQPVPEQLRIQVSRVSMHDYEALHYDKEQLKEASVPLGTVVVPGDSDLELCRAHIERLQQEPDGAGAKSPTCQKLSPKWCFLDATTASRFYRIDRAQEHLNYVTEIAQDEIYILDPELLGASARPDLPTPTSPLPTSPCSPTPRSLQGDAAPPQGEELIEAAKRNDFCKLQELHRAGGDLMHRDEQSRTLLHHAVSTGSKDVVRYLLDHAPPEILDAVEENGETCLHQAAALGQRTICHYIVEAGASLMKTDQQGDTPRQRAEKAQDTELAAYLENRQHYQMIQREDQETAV

For `C[C@@H]1CN(c2nc3nncn3c3c2ncn3CCN(C)C)[C@@H](C)CN1C(c1ccc(F)cc1)c1ccc(F)cc1` [Example 24, 2-(4-((2S,5R)-4-(Bis(4-fluorophenyl)methyl)-2,5-dimethylpiperazin-1-yl)-1H-[1,2,4]triazolo[3,4-b]purin-1-yl)-N,N-dimethylethane-1-amine], the 50% inhibitory concentration (IC50) on DGKζ and against DGKα was not above 20 nM in each case. Also, in assay [1] (30 mg/kg Compound 3 QD and 250 μg/mouse RMP1-14), the “TGI, combined with anti-PD-1 mAb, vs anti-PD-1 control group” value was “statistically significant; also recorded: significant TGI”. For the same compound, the “TGI vs vehicle control group” value in assay [1] (all groups treated with Compound 3: 10 or 30 mg/kg QD, alone or with 250 μg/mouse RMP1-14) was “Tumor growth inhibition of Compound 3 was observed for all groups; also recorded: statistically significant TGI”.
As for `C[C@@H]1CN(c2cc3nncn3c3c2ncn3C[C@@H]2CCCO2)[C@@H](C)CN1C(c1ccc(Cl)cc1)C1CC(F)(F)C1` (single isomer, unassigned) [Example 22], the IC50 against DGKζ and against DGKα was not above 20 nM in each case.
`Cc1nc2c(N3C[C@@H](C)N(C(c4ccc(F)c(Cl)c4)C4CC(F)(F)C4)C[C@@H]3C)nc3nncn3c2n1C[C@@H]1CCCO1` (single isomer, unassigned) [Example 3]: the 50% inhibitory concentration (IC50) on DGKζ and on DGKα was not above 20 nM in each case.
On to `Cc1nc2c(N3C[C@@H](C)N(C(CC(C)C)c4ccc(Cl)c(F)c4)C[C@@H]3C)nc3nncn3c2n1C[C@@H]1CCCO1` (single isomer, unassigned) [Example 11], for which the IC50 against DGKζ and on DGKα was not above 20 nM each time.
Turning to `Cc1nc2c(N3C[C@@H](C)N(C(c4ccc(Cl)cc4)c4ccc(Cl)cc4)C[C@@H]3C)nc3nncn3c2n1C[C@@H]1CCCO1` [Example 5, 4-((2S,5R)-4-(Bis(4-chlorophenyl)methyl)-2,5-dimethylpiperazin-1-yl)-2-methyl-1-(((S)-tetrahydrofuran-2-yl)methyl)-1H-[1,2,4]triazolo[3,4-b]purine], the 50% inhibitory concentration (IC50) on DGKζ and against DGKα was not above 20 nM in each case.

Source of the values: US20250186450A1, “COMBINATION THERAPY COMPRISING DGK INHIBITORS and PD-1/PD-L1 INHIBITORS” (Incyte Corporation, priority 2023, published 2025).
